Consider 9 compounds from patent EP0138995B1, “REGULATION OF ENZYMES WHICH UTILIZE TETRAHYDROBIOPTERIN OR TETRAHYDROFOLATE COFACTORS WITH 6, 6-DISUBSTITUTED-TETRAHYDROPTERIDINES” (South Alabama Medical Science Foundation, priority 1983, dated 1984).

Like-named read-outs stand apart in the source and are kept apart here.

Series [1] in a line: Preliminary in vivo testing: brain concentration after intraperitoneal injection. The note with it: mice, intraperitoneally, 0.1 µmole/g body weight. The protocol:
Preliminary in vivo testing of 6,6-disubstituted pteridines has been conducted. 6,6-Dimethyltetrahydropterin was injected intraperitoneally into mice at a dose rate of 0.1 µmole/g body weight. Maximum brain concentration was reached about one hour after injection and was more than 30 times higher than the maximum level reached by tetrahydrobiopterin injected in a similar manner.

The target of series [2] is T1, Rat Liver Phenylalanine Hydroxylase (Rattus norvegicus, UniProt P04176).
T1 construct: Cofactor for Rat Liver Phenylalanine Hydroxylase; from tissue; host or cells: rat liver
T1 sequence (P04176 1-453): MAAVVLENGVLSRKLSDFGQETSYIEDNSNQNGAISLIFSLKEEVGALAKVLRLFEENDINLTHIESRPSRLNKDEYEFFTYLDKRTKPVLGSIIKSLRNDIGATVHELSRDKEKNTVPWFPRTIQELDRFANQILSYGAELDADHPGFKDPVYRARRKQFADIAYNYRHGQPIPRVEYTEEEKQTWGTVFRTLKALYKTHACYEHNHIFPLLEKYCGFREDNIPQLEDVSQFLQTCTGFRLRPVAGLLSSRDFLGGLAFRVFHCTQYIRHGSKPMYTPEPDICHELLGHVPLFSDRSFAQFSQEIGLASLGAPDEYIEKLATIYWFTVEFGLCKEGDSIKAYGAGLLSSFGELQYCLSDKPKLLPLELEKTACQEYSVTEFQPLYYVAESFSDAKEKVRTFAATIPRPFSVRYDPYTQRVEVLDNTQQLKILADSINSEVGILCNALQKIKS
Nature of the series: Phenylalanine hydroxylase cofactor assay (cofactor consumption and tyrosine formation). The series is classed as biochemical. The note with it: for 6,6-Me2PH4 oxidized: 2-3 minutes, no regenerating system; for 6,6-Me2PH4 tyrosine: ratio cofactor oxidized to tyrosine produced; for Relative Vmax: relative to l-BH4 = 1.0. As to the method: The 6,6-dimethyl substituted tetrahydropterin was tested for cofactor activity in a standard phenylalanine hydroxylase assay in which both cofactor consumption and tyrosine formation were monitored. […] An apparent Michaelis constant was determined at 1 mM phenylalanine and atmospheric oxygen with concentrations of 6,6-Me₂PH₄ ranging from 0.02-0.3 mM. The effect of a second methyl at the 6-position slightly increases the affinity for phenylalanine hydroxylase, since the apparent Km was two-thirds to three-quarters that of 6-methyl and 6,7-dimethyltetrahydropterin (Table IV). […] The maximum velocity of the reaction with 6,6-Me₂PH₄ is similar to that with the 6,7-dimethyl compound and about 6 times slower than with the natural cofactor (Table IV).

The nature of series [3]: Rate of air oxidation of 6,6-Me2PH4. The series is classed as physicochemical. The note with it: 0.1 M Tris·HCl, pH 7.4 at 27°. As to the method:
Stability. The rate of air oxidation of 6,6-Me₂PH₄ was measured in 0.1 M Tris·HCl, pH 7.4 at 27°, i.e., enzyme assay conditions. […] This is similar to the constant previously determined for 6,7-Me₂PH₄.

The target of series [4] is T2, Sheep Liver Dihydropteridine Reductase (Ovis aries, UniProt A0ACI6QPJ5).
T2 sequence (A0ACI6QPJ5 46-254): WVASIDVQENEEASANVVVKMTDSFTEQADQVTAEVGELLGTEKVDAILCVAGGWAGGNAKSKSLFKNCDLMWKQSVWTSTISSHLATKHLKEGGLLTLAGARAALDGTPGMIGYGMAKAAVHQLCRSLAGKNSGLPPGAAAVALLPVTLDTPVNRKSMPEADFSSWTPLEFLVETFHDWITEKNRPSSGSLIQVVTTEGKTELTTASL
In words: Quinoid dihydropterin as substrate for dihydropteridine reductase (sheep liver). The series is classed as biochemical. The note with it: substrate produced by Peroxidase + H2O2. As to the method: The quinoid was generated from 6,6-Me₂PH₄, as outlined previously. […] Peroxidase (6 units/ml final volume) was temperature equilibrated in 0.1 M Tris·HCl, pH 7.4, at 27° for 5 minutes. H₂O₂ (1.2 mM final concentration) was then added, followed by 6,6-Me₂PH₄. Conversion to q-6,6-Me₂PH₂, monitored at 340 nm, was complete within a few seconds. • (iii) Generation by phenylalanine hydroxylase: […] At 5 minutes, 6,6-Me₂PH₄ was introduced and monitored at 340 nm. Conversion of 6,6-Me₂PH₄ to quinoid dihydropterin was complete in 1-7 minutes, depending on the concentration. […] Reaction was then initiated with dihydropteridine reductase (0.01 units/ml). Rates were calculated from the enzyme dependent decrease in O.D. at 340 nm, using an extinction coefficient of 9.8 for the chemically synthesized substrate and 6.2 for the peroxidase- and phenylalanine-hydroxylase-containing reactions in which the pterin is maintained in the quinoid form. […] This Km was obtained regardless of the method of generation of the quinoid dihydropterin. The Vmax's were also the same for the dihydropteridine reductase catalyzed reduction of quinoid generated by any of the three methods (Table VI). Thus, the quinoid products of each procedure appear to behave equally.

Series [5] addresses T1, Rat Liver Phenylalanine Hydroxylase. The note with it: data from the literature (footnotes c, d), cited from earlier work.
Series [6] concerns the target T3, phenylalanine hydroxylase (Rattus norvegicus, UniProt P04176).
T3 construct: from tissue
T3 sequence (P04176 1-453): T1 sequence (P04176 1-453)
In words: Inhibition of phenylalanine hydroxylase by dihydropterins. The series is classed as biochemical. The note with it: competitive inhibition; 6-MePH4 as cofactor 0.05 mM to 0.3 mM; read-out: apparent Ki. The protocol: Measurements were made under standard assay conditions with cofactor concentration varied between 0.05 and 0.3 mM. Stock solutions of 6,6-Me₂PH₂ were in 0.1 M assay buffer.
Standard assay conditions, with 6-MePH₄ as cofactor over a range of 0.05 mM to 0.3 mM, were employed.

For series [7] the following is noted: cited from earlier work; for concentration: read-out: blood level.
For series [8] the following is noted: cited from earlier work.
The target of series [9] is T4, Beef Liver Dihydropteridine Reductase (Bos taurus, UniProt Q3T0Z7).
T4 construct: from tissue; host or cells: beef liver
T4 sequence (Q3T0Z7 1-242): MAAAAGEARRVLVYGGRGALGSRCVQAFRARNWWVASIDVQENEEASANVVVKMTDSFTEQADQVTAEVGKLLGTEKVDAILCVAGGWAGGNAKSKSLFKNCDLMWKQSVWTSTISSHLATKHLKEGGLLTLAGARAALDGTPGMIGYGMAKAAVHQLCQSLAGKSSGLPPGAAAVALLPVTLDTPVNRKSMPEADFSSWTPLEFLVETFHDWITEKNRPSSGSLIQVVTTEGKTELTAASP
In words: Quinoid dihydropterin as substrate for dihydropteridine reductase (beef liver). The series is classed as biochemical. The note with it: substrate produced by Peroxidase + H2O2. The protocol: The quinoid was generated from 6,6-Me₂PH₄, as outlined previously. […] Peroxidase (6 units/ml final volume) was temperature equilibrated in 0.1 M Tris·HCl, pH 7.4, at 27° for 5 minutes. H₂O₂ (1.2 mM final concentration) was then added, followed by 6,6-Me₂PH₄. […] At 5 minutes, 6,6-Me₂PH₄ was introduced and monitored at 340 nm. […] Reaction was then initiated with dihydropteridine reductase (0.01 units/ml). Rates were calculated from the enzyme dependent decrease in O.D. at 340 nm, using an extinction coefficient of 9.8 for the chemically synthesized substrate and 6.2 for the peroxidase- and phenylalanine-hydroxylase-containing reactions in which the pterin is maintained in the quinoid form.

The conditions of series [10]: orally 2.5 mg/kg; cited from earlier work.
For series [11] the following is noted: rats, 125 mg BH4/kg intravenously, cited from earlier work.
For series [12] the following is noted: cited from earlier work. This is another data set of the same source.
The mark [13] stands for this setting: 0.2 mM cofactor, l-BH4: sigmoidal curve, Hill coefficient = 2, read-out: Km' for Phenylalanine.
Setting [14] is: 1 mM phenylalanine, atmospheric oxygen, 0.1 M Tris·HCl, pH 7.4, 27°C, read-out: Km' for Cofactor.

Regarding `CC1(C)CNc2nc(N)[nH]c(=O)c2N1` [6,6-Me2PH4, 6,6-Dimethyltetrahydropterin], in series [1], the “maximum brain concentration, times higher than the maximum level reached by tetrahydrobiopterin” value is “more than 30” and the “time after injection at which maximum brain concentration was reached” value is given as “about one”. Also, in series [2], the “coupling of the reaction (tyrosine formed per cofactor molecule consumed)” value is on record as “completely coupled reaction”; the “maximum velocity, times slower than with the natural cofactor” value is on record as “about 6”; the “Relative Vmax” value worked out at 0.17. Besides, in series [2] (Initial [6,6-Me2PH4] 0.01 mM), the “Tyrosine produced” value stood at 4.27 nmol, the “6,6-Me2PH4 oxidized” value came to 4.4 nmol and the “6,6-Me2PH4 tyrosine” value is 1.03. In addition, in series [2] (Initial [6,6-Me2PH4] 0.03 mM), the “Tyrosine produced” value is 9.77 nmol, the “6,6-Me2PH4 oxidized” value was 9.1 nmol and the “6,6-Me2PH4 tyrosine” value worked out at 0.93. Besides, in [2] (Initial [6,6-Me2PH4] 0.06 mM), the “Tyrosine produced” value worked out at 12.57 nmol, the “6,6-Me2PH4 oxidized” value is 11.76 nmol and the “6,6-Me2PH4 tyrosine” value stood at 0.94. Moreover, in series [2] (Initial [6,6-Me2PH4] 0.1 mM), the “Tyrosine produced” value was 19.25 nmol, the “6,6-Me2PH4 oxidized” value is 21.18 nmol and the “6,6-Me2PH4 tyrosine” value is listed as 1.10. Also, in [3], the half-life is 23 min and the “pseudo first order rate constant of air oxidation” value is listed as 0.03 min⁻¹.
As for `CC1N=C2C(=O)N=C(N)N=C2NC1C` (centres unmarked) [6,7-Me2PH2], the “Relative Vmax Sheep” value in series [4] worked out at 2.
Take `CC1Nc2nc(N)[nH]c(=O)c2NC1C` (centres unmarked) [6,7-Me2PH4, 6,7-dimethyltetrahydropterin]: the figures for the Km in series [5] (setting [13]) and in series [5] (setting [14]) were 800 ± 100 µM and 90 ± 10 µM, respectively. Also, the “Relative Vmax” value in [5] (relative to l-BH4 = 1.0) is given as 0.17.
For the compound `C[C@H](O)[C@H](O)C1=Nc2c(nc(N)[nH]c2=O)NC1` [7,8-dihydrobiopterin, reference compound], the Ki in series [6] turned out to be 50 µM.
For the compound `CC1CNc2nc(N)[nH]c(=O)c2N1` (centres unmarked) [Compound 6-MePH4, 6-methyltetrahydropterin], in series [7] (2 hrs after injection, Kapatos and Kaufman), the “share of striatal 6-MePH4 remaining in the fully reduced tetrahydro-form” value is “over 85%”. Besides, the “share of 6-MePH4 in the brain in the reduced form” value in [7] (Curtius et al.) is on record as 30%. In addition, in series [7] (rats, 0.11 µmole (i.p.)/gm body weight), the “efficiency of entry into the brain, times that of an equal dose of BH4” value is given as “up to 10”. The brain level in series [7] (rats, 0.11 µmole (i.p.)/gm, at 30 minutes, maintained until 2 hours) is 2 nmoles/g brain. Besides, the “brain level as share of that expected assuming equal body distribution” value in series [7] (rats, 0.11 µmole (i.p.)/gm) is given as 2%. The concentration is 40 µM in [7] (rats, i.p., at 30 minutes) and 10 µM in series [7] (rats, i.p., by 2 hrs). Besides, the “half life for retention by the brain” value in [7] (rats, i.p.) was 3 h. For the same compound, the “half life for retention by the plasma” value in [7] (rats, i.p.) was 42 min. For the same compound, in [2], the “Relative Vmax” value is on record as 0.77. For the same compound, the CSF level was 0.06 µg/mL in [8] (at 9.5 hours after intravenous injection of 20 mg/kg) and 0.45 µg/mL in [8] (three hours after intravenous injection of 20 mg/kg, 180 min). In series [8] (three hours after intravenous injection of 20 mg/kg), the “CSF level as share of that expected on the basis of equal body distribution” value is 2.2%. Moreover, the “CSF 5-hydroxyindoleacetic acid” value in [8] (two hours after 8 mg/kg, from 6 before, normal = 30) is 18 ng/mL. Further, in series [8] (two hours after 8 mg/kg, from 9 before, normal 132), the CSF homovanillic acid is 22 ng/mL.
Turning to `CC1(c2ccccc2)CNC2=NC(N)=NC(=O)C2=N1` (centres unmarked) [Compound 6-Ph-6-MePH2, 2-Amino-4-hydroxy-6-methyl-6-phenyl-quinoid-dihydro-pteridine], the “Relative Vmax Beef” value in [9] came to 0.6.
Consider `CC(O)C(O)C1=Nc2c(nc(N)[nH]c2=O)NC1` (centres unmarked) [Dihydrobiopterin], for which the “time normal levels of phenylalanine were maintained” value in series [10] was 24 h.
Take `C[C@H](O)[C@H](O)[C@H]1CNc2nc(N)[nH]c(=O)c2N1` [l-BH4, tetrahydrobiopterin]: the “maximum increase of BH4 in the striatum” value in series [11] (in 15 mins) is listed as 30%. Moreover, in series [11], the “striatal increase as share of the concentration administered assuming uniform body distribution” value is given as 0.2% and the “time of return of striatal BH4 to normal” value is listed as “less than 2 hours”. The Michaelis-Menten constant (Km) in series [5] (setting [13]) was 170 µM. Moreover, in series [5] (setting [14]), the Km was 21 ± 3 µM. Also, the “increase in CSF BH4” value in [12] (2 mg BH4 (i.v.)/kg/day for 3 days, 1 day after the last injection, BH4-synthesis-deficient child) is “no increase”. Also, in [12] (2.5 hours after oral treatment, in two equal doses, from 2 ng before), the “CSF BH4” value was 44 ng/mL. In [12] (2.5 hours after oral treatment), the “CSF BH4 as share of that expected assuming uniform body distribution and retention” value is reported as 0.22%.
On to “quinoid dihydrobiopterin [dihydro-biopterin (natural isomer), reference compound]”, for which, in series [4], the Michaelis constant (Km) is 0.004 mM and the “Relative Vmax Sheep” value was found to be 0.5. In [9], the Km was 0.004 mM and the “Relative Vmax Beef” value was 0.5.
